Experimental data from patent US20240384268A1, “Oligonucleotides” (Hudson Institute of Medical Research, priority 2021, published 2024).
In the oligonucleotide strings, read from the 5' end, every base follows the letter of its sugar. An asterisk marks phosphorothioate; unmarked linkages are phosphodiester. Other units and linkages are bracketed, terminal groups are in braces. A string of capitals states the bases alone. d = 2'-deoxy (DNA); m = 2'-O-methyl

Molecular target: T1, human TLR9 (Homo sapiens, UniProt Q9NR96)
T1 construct: HA; host or cells: 293XL-hTLR9-HA (HEK293)
T1 sequence (Q9NR96 26-1032): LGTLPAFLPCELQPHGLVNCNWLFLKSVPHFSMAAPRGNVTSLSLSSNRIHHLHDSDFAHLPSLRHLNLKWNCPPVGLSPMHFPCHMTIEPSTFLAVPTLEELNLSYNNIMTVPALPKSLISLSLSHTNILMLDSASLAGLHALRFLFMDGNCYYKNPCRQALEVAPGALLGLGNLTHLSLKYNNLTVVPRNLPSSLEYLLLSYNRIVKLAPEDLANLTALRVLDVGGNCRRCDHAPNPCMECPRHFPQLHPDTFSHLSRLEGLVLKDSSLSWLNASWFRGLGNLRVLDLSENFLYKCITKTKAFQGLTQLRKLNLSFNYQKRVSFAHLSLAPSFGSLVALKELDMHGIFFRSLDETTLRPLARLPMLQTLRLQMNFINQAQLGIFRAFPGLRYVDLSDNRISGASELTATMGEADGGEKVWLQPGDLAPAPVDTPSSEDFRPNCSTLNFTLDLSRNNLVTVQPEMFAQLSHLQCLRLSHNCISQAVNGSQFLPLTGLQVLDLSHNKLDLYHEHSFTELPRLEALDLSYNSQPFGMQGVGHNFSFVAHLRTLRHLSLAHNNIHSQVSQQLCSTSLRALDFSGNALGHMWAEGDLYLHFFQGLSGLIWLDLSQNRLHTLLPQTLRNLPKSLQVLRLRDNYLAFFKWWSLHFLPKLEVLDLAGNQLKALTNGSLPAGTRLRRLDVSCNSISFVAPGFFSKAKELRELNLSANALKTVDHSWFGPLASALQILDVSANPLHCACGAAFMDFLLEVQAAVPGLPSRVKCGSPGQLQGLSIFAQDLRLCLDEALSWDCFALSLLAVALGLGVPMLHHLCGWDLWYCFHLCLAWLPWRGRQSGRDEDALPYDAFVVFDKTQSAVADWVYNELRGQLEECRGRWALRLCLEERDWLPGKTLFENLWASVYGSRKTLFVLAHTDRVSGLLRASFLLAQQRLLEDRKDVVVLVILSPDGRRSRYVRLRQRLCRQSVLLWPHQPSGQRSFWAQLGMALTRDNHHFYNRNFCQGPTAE
Experiment: HEK-TLR9 NF-κB-luciferase reporter, ODN2006 stimulation
Format: cell-based
Details: for TLR9-500 nM: averaged NF-κB-Luciferase relative to ODN2006: HEK-TLR9, 500 nM ASO 45 min, then 200 nM ODN2006 overnight, percentage of ODN2006 only; for TLR9 100 nM: MOE-modified ASO at 100 nM; for TLR9 100 nM / TLR9 500 nM: averaged NF-κB-Luciferase relative to ODN2006 condition; for TLR9 500 nM: MOE-modified ASO at 500 nM

| Substance | TLR9-500 nM: averaged NF-κB-Luciferase relative to ODN2006 | TLR9 100 nM | TLR9 500 nM |
| --- | --- | --- | --- |
| mG*mG*mU*mC*mC*C*A*T*C*C*C*T*T*C*T*mG*mC*mU*mG*mC (GGUCCCATCCCTTCTGCUGC; sugars from the 5' end m5 d10 m5, all phosphorothioate, methylation of C not given here) [[LINC-PINT]103] | 88.75% | – | – |
| mU*mC*mU*mG*mG*T*C*C*C*A*T*C*C*C*T*mU*mC*mU*mG*mC (UCUGGTCCCATCCCTUCUGC; antisense; sugars from the 5' end m5 d10 m5, all phosphorothioate, methylation of C not given here) [[LINC-PINT]106] | 56.60% | – | – |
| mU*mC*mC*mC*mA*A*C*T*C*T*T*C*T*A*A*mC*mU*mC*mG*mU (mU*mC*mC*mC*mA*dA*dC*dT*dC*dT*dT*dC*dT*dA*dA*mC*mU*mC*mG*mU; antisense) [[LINC-PINT]1284 KL] | 86.73% | – | – |
| TCCGGCCTCGGAAGCTCTCT (antisense; 2'-MOE modified, pattern not given here) [MB21D1-168 MOE] | – | 0.242 | 0.000 |
| TGGGTTACGGCTCAGTATGG (antisense; 2'-MOE modified, pattern not given here) [CAMSAP1-4295 MOE] | – | 0.478 | 0.228 |
| mU*mG*mU*mG*mA*A*A*A*G*A*T*T*A*T*C*mU*mU*mC*mU*mU (UGUGAAAAGATTATCUUCUU; sugars from the 5' end m5 d10 m5, all phosphorothioate, methylation of C not given here) [[CDKN2B-AS1]2137] | 62.16% | – | – |
| mC*mU*mC*mU*mC*T*G*G*T*C*C*C*A*T*C*mC*mC*mU*mU*mC (mC*mU*mC*mU*mC*dT*dG*dG*dT*dC*dC*dC*dA*dT*dC*mC*mC*mU*mU*mC; antisense) [[LINC-PINT]109] | 89.85% | – | – |
| mU*mC*mC*mC*mA*T*C*C*C*T*T*C*T*G*C*mU*mG*mA*mC*mA (UCCCATCCCTTCTGCUGACA; sugars from the 5' end m5 d10 m5, all phosphorothioate, methylation of C not given here) [[LINC-PINT]101] | 59.80% | – | – |
| mC*mU*mU*mU*mA*T*A*T*T*A*C*A*A*A*G*mC*mU*mA*mC*mU (mC*mU*mU*mU*mA*dT*dA*dT*dT*dA*dC*dA*dA*dA*dG*mC*mU*mA*mC*mU; antisense) [[LINC-PINT]2755] | 84.43% | – | – |
| mU*mG*mA*mC*mA*A*A*A*C*A*A*T*A*A*T*mA*mA*mC*mA*mG (mU*mG*mA*mC*mA*dA*dA*dA*dC*dA*dA*dT*dA*dA*dT*mA*mA*mC*mA*mG) [[LINC-PINT]384] | 53.61% | – | – |
| mG*mG*mU*mC*mU*C*C*T*C*C*A*C*A*C*C*mC*mU*mU*mC*mU (mG*mG*mU*mC*mU*dC*dC*dT*dC*dC*dA*dC*dA*dC*dC*mC*mU*mU*mC*mU; antisense) [[LINC-PINT]127] | 77.91% | – | – |
| mC*mC*mU*mU*mC*T*G*C*T*G*C*C*A*A*G*mC*mC*mC*mC*mA (mC*mC*mU*mU*mC*dT*dG*dC*dT*dG*dC*dC*dA*dA*dG*mC*mC*mC*mC*mA; antisense) [[LINC-PINT]94] | 96.69% | – | – |
| mA*mA*mA*mU*mG*T*C*C*T*G*G*C*C*C*T*mC*mA*mC*mU*mG (mA*mA*mA*mU*mG*dT*dC*dC*dT*dG*dG*dC*dC*dC*dT*mC*mA*mC*mU*mG) [[LINC-PINT]148.1] | 46.72% | – | – |
| mG*mC*mA*mA*mG*G*C*A*G*A*G*A*A*A*C*mU*mC*mC*mA*mG (GCAAGGCAGAGAAACUCCAG; sugars from the 5' end m5 d10 m5, all phosphorothioate, methylation of C not given here) [[LINC-PINT]1315 KL] | 53.46% | – | – |
| mG*mU*mC*mC*mC*A*G*G*C*C*T*C*C*A*G*mU*mG*mU*mC*mU (mG*mU*mC*mC*mC*dA*dG*dG*dC*dC*dT*dC*dC*dA*dG*mU*mG*mU*mC*mU; antisense) [[CDKN2B-AS1]2223] | 67.61% | – | – |
| GGGTATCGAAAGAGTCTGGA (antisense; 2'-MOE modified, pattern not given here) [EGFR-3908 MOE] | – | 0.349 | 0.203 |

| Substance | TLR9-500 nM: averaged NF-κB-Luciferase relative to ODN2006 | TLR9 100 nM | TLR9 500 nM |
| --- | --- | --- | --- |
| mU*mU*mA*mG*mC*T*C*C*T*T*G*C*C*T*C*mG*mU*mU*mC*mC (mU*mU*mA*mG*mC*dT*dC*dC*dT*dT*dG*dC*dC*dT*dC*mG*mU*mU*mC*mC; antisense) [[LINC-PINT] 1222] | 78.17% | – | – |
| mA*mU*mA*mU*mC*T*G*C*T*G*C*C*C*A*C*mC*mU*mU*mC*mU (AUAUCTGCTGCCCACCUUCU; antisense; sugars from the 5' end m5 d10 m5, all phosphorothioate, methylation of C not given here) [[CDKN2B-AS1]831] | 73.46% | – | – |
| mU*mC*mU*mC*mU*C*T*G*G*T*C*C*C*A*T*mC*mC*mC*mU*mU (mU*mC*mU*mC*mU*dC*dT*dG*dG*dT*dC*dC*dC*dA*dT*mC*mC*mC*mU*mU; antisense) [[LINC-PINT]110] | 74.25% | – | – |
| mG*mU*mC*mC*mG*T*A*C*C*T*C*C*A*C*C*mC″mA*mC*mC*mG [[LINC-PINT]727.1] | 58.15% | – | – |
| mU*mU*mG*mG*mC*C*T*G*T*G*G*A*T*G*C*mU*mU*mU*mG*mU (mU*mU*mG*mG*mC*dC*dT*dG*dT*dG*dG*dA*dT*dG*dC*mU*mU*mU*mG*mU) [[LINC-PINT]2673.1] | 40.71% | – | – |
| mA*mA*mG*mG*mU*G*G*C*C*A*C*A*G*G*C*mA*mA*mC*mG*mU (mA*mA*mG*mG*mU*dG*dG*dC*dC*dA*dC*dA*dG*dG*dC*mA*mA*mC*mG*mU; antisense) [[CDKN2B-AS1]2198] | 84.28% | – | – |
| mG*mG*mG*mU*mC*T*C*C*T*C*C*A*C*A*C*mC*mC*mU*mU*mC (GGGUCTCCTCCACACCCUUC; antisense; sugars from the 5' end m5 d10 m5, all phosphorothioate, methylation of C not given here) [[LINC-PINT]128] | 94.51% | – | – |
| mA*mA*mG*mA*mU*T*A*T*C*T*T*C*T*T*T*mU*mA*mA*mU*mU (mA*mA*mG*mA*mU*dT*dA*dT*dC*dT*dT*dC*dT*dT*dT*mU*mA*mA*mU*mU) [[CDKN2B-AS1]2131] | 59.77% | – | – |
| mC*mC*mA*mU*mC*C*C*T*T*C*T*G*C*T*G*mC*mC*mA*mA*mG (mC*mC*mA*mU*mC*dC*dC*dT*dT*dC*dT*dG*dC*dT*dG*mC*mC*mA*mA*mG; antisense) [ILING-PINT199] | 92.72% | – | – |
| TGGCAGGCTCAGTGATGTCT (antisense; 2'-MOE modified, pattern not given here) [CTNN2B-1642 MOE] | – | 0.722 | 0.479 |
| mG*mA*mU*mU*mA*A*A*A*C*A*G*A*T*T*A*mA*mU*mA*mC*mA (mG*mA*mU*mU*mA*dA*dA*dA*dC*dA*dG*dA*dT*dT*dA*mA*mU*mA*mC*mA) [[CDKN2B-AS1]1773] | 44.97% | – | – |
| mG*mU*mC*mC*mC*A*T*C*C*C*T*T*C*T*G*mC*mU*mG*mC*mC (GUCCCATCCCTTCTGCUGCC; antisense; sugars from the 5' end m5 d10 m5, all phosphorothioate, methylation of C not given here) [[LINC-PINT]102] | 101.22% | – | – |
| ATGCCATCCACTTGATAGGC (antisense; 2'-MOE modified, pattern not given here) [EGFR-2874 MOE] | – | 0.712 | 0.589 |
| mC*mC*mU*mA*mG*A*A*A*G*A*A*G*C*A*A*mA*mG*mA*mU*mU (mC*mC*mU*mA*mG*dA*dA*dA*dG*dA*dA*dG*dC*dA*dA*mA*mG*mA*mU*mU) [[CDKN2B-AS1]1522] | 42.44% | – | – |
| mA*mA*mA*mA*mU*A*A*G*G*G*G*A*A*T*A*mG*mG*mG*mG*mA (mA*mA*mA*mA*mU*dA*dA*dG*dG*dG*dG*dA*dA*dT*dA*mG*mG*mG*mG*mA; antisense) [[CDKN2B-AS1]79] | 67.44% | – | – |
| mG*mC*mG*mU*mA*G*T*T*T*C*T*C*T*T*C*mC*mU*mC*mC*mC (GCGUAGTTTCTCTTCCUCCC; sugars from the 5' end m5 d10 m5, all phosphorothioate, methylation of C not given here) [[LINC-PINT]935 KL] | 52.04% | – | – |
